Converted amounts (≈) assume the structure as drawn.
Legend:
E. coli ATCC 25922 = experiment: microbe, parasite or virus in culture; details: n = 2
Summary of the method: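 Broth microdilution with 2-fold serial compound dilutions in MH broth, using cultures diluted 40-fold and grown at 37°C for 2 to 3 h, with or without Tween. Variants included 2% beractant added to mid-log cultures, or 50% human serum in MHB.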

A. baumannii ATCC 19606 = experiment: microbe, parasite or virus in culture; details: Acinetobacter baumannii, n = 2
Summary of the method: (§1)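 Every plate included two controls, one row of bacteria alone and one of medium only. Test agents and standard antibiotics underwent twofold dilution series in 96-well format, and cultures were diluted 40-fold into MH broth in the presence or absence of Tween before 2–3 h at 37°C.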

K. pneumoniae ATCC 13883 = experiment: microbe, parasite or virus in culture; details: Klebsiella pneumoniae, n = 2
Summary of the method: as §1

P. aeruginosa ATCC 10145 = experiment: microbe, parasite or virus in culture; details: Pseudomonas aeruginosa, n = 2
Summary of the method: as §1

E. coli = details: literature value; cited from earlier work

CC1(C)S[C@@H]2[C@H](NC(=O)Cc3ccccc3)C(=O)N2[C@H]1C(=O)O [Penicillin G, penicillin G]
MIC (E. coli ATCC 25922; Corning PS plate, MHB −T80, no additive): 32 to 64 µg/mL
MIC (E. coli ATCC 25922; Escherichia coli, ATCC25922, 24 h, Corning NBS, MH + 2% LHB, 2% LS): 32 to 64 µg/mL
MIC (E. coli ATCC 25922; Escherichia coli, ATCC25922, 24 h, Corning NBS, MH + 2% LHB, 50% HS): 32 to 64 µg/mL
MIC (E. coli ATCC 25922; Escherichia coli, ATCC25922, 24 h, Corning NBS, MH + 2% LHB, no additive): 32 to 64 µg/mL
MIC (E. coli ATCC 25922; Escherichia coli, ATCC25922, 24 h, Corning NBS, MH + T80, 2% LS): 32 µg/mL
MIC (E. coli ATCC 25922; Escherichia coli, ATCC25922, 24 h, Corning NBS, MH + T80, 50% HS): 32 to 64 µg/mL
MIC (E. coli ATCC 25922; Escherichia coli, ATCC25922, 24 h, Corning PS, MH + 2% LHB, 2% LS): 32 to 64 µg/mL
MIC (E. coli ATCC 25922; Escherichia coli, ATCC25922, 24 h, Corning PS, MH + 2% LHB, no additive): 64 µg/mL
MIC (E. coli ATCC 25922; Escherichia coli, ATCC25922, 24 h, Corning PS, MH + T80, 2% LS): 32 to 64 µg/mL
MIC (E. coli ATCC 25922; Escherichia coli, ATCC25922, 24 h, Corning PS, MH + T80, 50% HS): 64 µg/mL
MIC (E. coli ATCC 25922; Escherichia coli, ATCC25922, 24 h, Corning TC, MH + 2% LHB, 2% LS): 32 to 64 µg/mL
MIC (E. coli ATCC 25922; Escherichia coli, ATCC25922, 24 h, Corning TC, MH + 2% LHB, 50% HS): 32 to 64 µg/mL
MIC (E. coli ATCC 25922; Escherichia coli, ATCC25922, 24 h, Corning TC, MH + 2% LHB, no additive): 64 µg/mL
MIC (E. coli ATCC 25922; Escherichia coli, ATCC25922, 24 h, Corning TC, MH + T80, 2% LS): 32 to 64 µg/mL
MIC (E. coli ATCC 25922; Escherichia coli, ATCC25922, 24 h, Corning TC, MH + T80, 50% HS): 64 µg/mL
MIC (E. coli ATCC 25922; Escherichia coli, ATCC25922, 24 h, Trek PS, MH + 2% LHB, 2% LS): 32 µg/mL
MIC (E. coli ATCC 25922; Escherichia coli, ATCC25922, 24 h, Trek PS, MH + 2% LHB, 50% HS): 32 µg/mL
MIC (E. coli ATCC 25922; Escherichia coli, ATCC25922, 24 h, Trek PS, MH + 2% LHB, no additive): 32 µg/mL
MIC (E. coli ATCC 25922; Escherichia coli, ATCC25922, 24 h, Trek PS, MH + T80, 2% LS): 32 µg/mL
MIC (E. coli ATCC 25922; Escherichia coli, ATCC25922, 24 h, Trek PS, MH + T80, 50% HS): 32 µg/mL
MIC (E. coli ATCC 25922; Escherichia coli, ATCC25922, Corning NBS plate, MHB +0.002% T80, no further additive): 64 µg/mL (≈ 191 µM)
MIC (E. coli ATCC 25922; Escherichia coli, ATCC25922, Corning NBS plate, MHB −T80, no additive): 64 µg/mL (≈ 191 µM)
MIC (E. coli ATCC 25922; Escherichia coli, ATCC25922, Corning NBS, MH, 2% LS): 64 µg/mL (≈ 191 µM)
MIC (E. coli ATCC 25922; Escherichia coli, ATCC25922, Corning NBS, MH, 50% HS): 64 µg/mL (≈ 191 µM)
MIC (E. coli ATCC 25922; Escherichia coli, ATCC25922, Corning PS plate, MHB +0.002% T80, no further additive): 64 µg/mL (≈ 191 µM)
MIC (E. coli ATCC 25922; Escherichia coli, ATCC25922, Corning PS plate, MHB −T80, no additive): 32 to 64 µg/mL (≈ 95.7 to 191 µM)
MIC (E. coli ATCC 25922; Escherichia coli, ATCC25922, Corning PS, MH, 50% HS): 64 µg/mL (≈ 191 µM)
MIC (E. coli ATCC 25922; Escherichia coli, ATCC25922, Corning TC plate, MHB +0.002% T80, no further additive): 64 µg/mL (≈ 191 µM)
MIC (E. coli ATCC 25922; Escherichia coli, ATCC25922, Corning TC plate, MHB −T80, no additive): 32 µg/mL (≈ 95.7 µM)
MIC (E. coli ATCC 25922; Escherichia coli, ATCC25922, Corning TC, MH, 2% LS): 64 µg/mL (≈ 191 µM)
MIC (E. coli ATCC 25922; Escherichia coli, ATCC25922, Corning TC, MH, 50% HS): 64 µg/mL (≈ 191 µM)
MIC (E. coli ATCC 25922; Escherichia coli, ATCC25922, Nunc PS plate, MHB +0.002% T80): 64 µg/mL (≈ 191 µM)
MIC (E. coli ATCC 25922; Escherichia coli, ATCC25922, Nunc PS plate, MHB −T80): 32 µg/mL (≈ 95.7 µM)
MIC (E. coli ATCC 25922; Escherichia coli, ATCC25922, Nunc U TC plate, MHB +0.002% T80): 64 µg/mL (≈ 191 µM)
MIC (E. coli ATCC 25922; Escherichia coli, ATCC25922, Nunc U TC plate, MHB −T80): 32 µg/mL (≈ 95.7 µM)
MIC (E. coli ATCC 25922; Escherichia coli, ATCC25922, Nunc flat TC plate, MHB +0.002% T80): 64 µg/mL (≈ 191 µM)
MIC (E. coli ATCC 25922; Escherichia coli, ATCC25922, Nunc flat TC plate, MHB −T80): 32 to 64 µg/mL (≈ 95.7 to 191 µM)
MIC (E. coli ATCC 25922; Escherichia coli, ATCC25922, Trek PS plate, MHB +0.002% T80, no further additive): 32 to 64 µg/mL (≈ 95.7 to 191 µM)
MIC (E. coli ATCC 25922; Escherichia coli, ATCC25922, Trek PS plate, MHB −T80, no additive): 64 µg/mL (≈ 191 µM)
MIC (E. coli ATCC 25922; Escherichia coli, ATCC25922, Trek PS, MH, 2% LS): 64 µg/mL (≈ 191 µM)
MIC (E. coli ATCC 25922; Trek PS plate, MHB +0.002% T80, no further additive): 32 to 64 µg/mL
MIC (A. baumannii ATCC 19606; ATCC19606, Corning NBS, MHB +T80): > 64 µg/mL
MIC (A. baumannii ATCC 19606; ATCC19606, Corning NBS, MHB -T80): > 64 µg/mL
MIC (A. baumannii ATCC 19606; ATCC19606, Corning PS, MHB +T80): > 64 µg/mL
MIC (A. baumannii ATCC 19606; ATCC19606, Corning PS, MHB -T80): > 64 µg/mL
MIC (A. baumannii ATCC 19606; ATCC19606, Corning TC, MHB +T80): > 64 µg/mL
MIC (A. baumannii ATCC 19606; ATCC19606, Corning TC, MHB -T80): > 64 µg/mL
MIC (K. pneumoniae ATCC 13883; ATCC13883, Corning NBS, MHB +T80): > 64 µg/mL
MIC (K. pneumoniae ATCC 13883; ATCC13883, Corning NBS, MHB -T80): > 64 µg/mL
MIC (K. pneumoniae ATCC 13883; ATCC13883, Corning PS, MHB +T80): > 64 µg/mL
MIC (K. pneumoniae ATCC 13883; ATCC13883, Corning PS, MHB -T80): > 64 µg/mL
MIC (K. pneumoniae ATCC 13883; ATCC13883, Corning TC, MHB +T80): > 64 µg/mL
MIC (K. pneumoniae ATCC 13883; ATCC13883, Corning TC, MHB -T80): > 64 µg/mL
MIC (P. aeruginosa ATCC 10145; ATCC10145, Corning NBS, MHB +T80): > 64 µg/mL
MIC (P. aeruginosa ATCC 10145; ATCC10145, Corning NBS, MHB -T80): > 64 µg/mL
MIC (P. aeruginosa ATCC 10145; ATCC10145, Corning PS, MHB +T80): > 64 µg/mL
MIC (P. aeruginosa ATCC 10145; ATCC10145, Corning PS, MHB -T80): > 64 µg/mL
MIC (P. aeruginosa ATCC 10145; ATCC10145, Corning TC, MHB +T80): > 64 µg/mL
MIC (P. aeruginosa ATCC 10145; ATCC10145, Corning TC, MHB -T80): > 64 µg/mL
MIC (literature) (E. coli): 16–64 ([71]) µg/ml

From article PMC6325200, “Effects of Microplate Type and Broth Additives on Microdilution MIC Susceptibility Assays” (Antimicrobial Agents and Chemotherapy, 2018)
